In paper PMC8508980, “Design, Synthesis and Anticancer Profile of New 4-(1H-benzo[d]imidazol-1-yl)pyrimidin-2-amine-Linked Sulfonamide Derivatives with V600EBRAF Inhibitory Effect” (International Journal of Molecular Sciences, 2021):

How the values were obtained:
MOLT-4 = experiment: NCI 60 cell line screen; type: cell-based, human; conditions: Homo sapiens; MOLT-4, Leukemia; read-out: Percent growth
Experimental: (§1) Anticancer profiling over a panel of 60 cancer cell lines was carried out at the National Cancer Institute (NCI), Bethesda, Maryland, USA, https://dtp.cancer.gov/discovery_development/nci-60/methodology.htm (Last visit 22 September 2021), using the standard procedure (detailed procedure is located in the Supplementary Information page 50 s).
(§2) NCI standard procedure for 60 cell lines assay
(§3) The human tumor cell lines of the cancer screening panel are grown in RPMI 1640 mediu m containing 5% fetal bovine serum and 2 mM L-glutamine. For a typical screening experiment, cells are inoculated into 96 well microtiter plates in 100 μL at plating densities ranging from 5,000 to 40,000 cells/well depending on the doubling time of individual cell lines. After cell inoculation, the microtiter plates are incubated at 37° C, 5 % CO2, 95 % air and 100 % relative humidity for 24 h prior to addition of experimental drugs.
(§4) After 24 h, two plates of each cell line are fixed in situ with TCA, to represent a measurement of the cell population for each cell line at the time of drug addition (Tz). Experimental drugs are solubilized in dimethyl sulfoxide at 400-fold the desired final maximum test concentration (10 µM) and stored frozen prior to use. At the time of drug addition, an aliquot of frozen concentrate is thawed and diluted to twice the desired final maximum test concentration with co mp lete medium containing 50 μg/ml gentamicin. Additional four, 10-fold or ½ log serial dilutions are made to provide a total of five drug concentrations plus control. Aliquots of 100 μl of these different drug dilutions are added to the appropriate microtiter wells already containing 100 μl of medium, resulting in the required final drug concentrations.
(§5) Following drug addition, the plates are incubated for an additional 48 h at 37°C, 5 % CO2, 95 % air, and 100 % relative humidity. For adherent cells, the assay is terminated by the addition of cold TCA. Cells are fixed in situ by the gentle addition of 50 μl of cold 50 % (w/v) TCA (final concentration, 10 % TCA) and incubated for 60 minutes at 4°C. The supernatant is discarded, and the plates are washed five times with tap water and air dried. Sulforhodamine B (SRB) solution (100 μl) at 0.4 % (w/v) in 1 % acetic acid is added to each well, and plates are incubated for 10 minutes at room temperature. After staining, unbound dye is removed by washing five times with 1 % acetic acid and the plates are air dried. Bound stain is subsequently solubilized with 10 mM trizma base, and the absorbance is read on an automated plate reader at a wavelength of 515 nm. For suspension cells, the methodology is the same except that the assay is terminated by fixing settled cells at the bottom of the wells by g ently adding 50 μl of 80 % TCA (final concentration, 16 % TCA). Using the seven absorbance measurements [time zero, (Tz), control growth, (C), and test growth in the presence of drug at the five concentration levels (Ti)], the percentage growth is calculated at each of the drug concentrations levels. Percentage growth inhibition is calculated as:
(§6) [(Ti-Tz)/(C-Tz)] x 100 for concentrations for which Ti>/=Tz
(§7) [(Ti-Tz)/Tz] x 100 for concentrations for which Ti<Tz.
(§8) Three dose response parameters are calculated for each experimental agent. Growth inhibition of […]
(§9) resulting in a 50% reduction in the net protein increase (as measured by SRB staining) in control cells during the drug incubation. The drug concentration resulting in total growth inhibition […]
(§10) (TGI) is calculated from Ti = Tz.

UO-31 = experiment: NCI 60 cell line screen; type: cell-based, human; conditions: Homo sapiens; UO-31, Renal Cancer; read-out: Percent growth
Experimental: as §1, §2, §3, §4, §5, §6, §7, §8, §9, §10

HCT-15 = experiment: NCI 60 cell line screen; type: cell-based, human; conditions: Homo sapiens; HCT-15, Colon Cancer; read-out: Percent growth
Experimental: as §1, §2, §3, §4, §5, §6, §7, §8, §9, §10

NCI-H23 = experiment: NCI 60 cell line screen; type: cell-based, human; conditions: Homo sapiens; NCI-H23, Non-Small Cell Lung Cancer; read-out: Percent growth
Experimental: as §1, §2, §3, §4, §5, §6, §7, §8, §9, §10

BRAF (wild-type) = target: T1, BRAF (wild-type) (Homo sapiens, UniProt P15056); experiment: Reaction Biology kinase HotSpot enzyme assay; type: biochemical; conditions: 1 µM ATP; mean ± S.D. of two separate experiments
T1 construct: purchased Reaction Biology Corp. (Kinase HotSpot service)
T1 sequence (P15056 whole entry): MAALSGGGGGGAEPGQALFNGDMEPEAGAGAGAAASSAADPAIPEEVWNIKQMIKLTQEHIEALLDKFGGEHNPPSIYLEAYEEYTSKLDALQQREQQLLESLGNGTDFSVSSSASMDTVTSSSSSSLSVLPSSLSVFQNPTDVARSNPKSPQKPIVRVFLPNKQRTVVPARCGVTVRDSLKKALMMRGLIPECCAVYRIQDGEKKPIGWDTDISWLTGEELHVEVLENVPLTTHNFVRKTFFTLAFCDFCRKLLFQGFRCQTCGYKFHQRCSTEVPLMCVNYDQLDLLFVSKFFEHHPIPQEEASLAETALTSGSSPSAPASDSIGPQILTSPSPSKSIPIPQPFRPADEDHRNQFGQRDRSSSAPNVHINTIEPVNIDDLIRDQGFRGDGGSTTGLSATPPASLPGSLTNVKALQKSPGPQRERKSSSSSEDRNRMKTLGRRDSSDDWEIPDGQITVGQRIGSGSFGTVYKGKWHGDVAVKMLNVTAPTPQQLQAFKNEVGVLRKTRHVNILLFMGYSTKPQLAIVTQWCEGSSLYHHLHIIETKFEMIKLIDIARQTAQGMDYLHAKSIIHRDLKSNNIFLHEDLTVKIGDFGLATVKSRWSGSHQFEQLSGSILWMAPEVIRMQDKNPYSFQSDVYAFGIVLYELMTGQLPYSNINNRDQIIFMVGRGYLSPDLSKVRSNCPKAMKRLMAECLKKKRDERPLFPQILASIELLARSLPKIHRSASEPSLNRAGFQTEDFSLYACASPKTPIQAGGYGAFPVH
Experimental: The enzymatic assays were performed in Reaction Biology Corp. using the standard protocol at 1 µM ATP and threefold dilution factor (detailed procedure is found in the Supplementary Information page 52 s).
(§11) Reaction Biology Corp. Kinase HotSpotTM service http://www.reactionbiology.com was used for screening of compounds IC50 Proﬁler Express for IC50 measurement. Assay protocol: In a ﬁnal reaction volume of 25 μL, kinase (5–10 mU) is incubated with 25 mM Tris pH 7.5, 0.02 mM EGTA, 0.66 mg/mL myelin basic protein, 10 mM magnesium acetate and [γ33P-ATP] (speciﬁc activity approx. 500 cpm/pmol, concentration as required). The reaction is initiated by the addition of the Mg-ATP mix. After incubation for 40 min at room temperature, the reaction is stopped by the addition of 5 μL of a 3% phosphoric acid solution. 10 μL of the reaction is then spotted onto a P30 ﬁltermat, and washed three times for 5 min in 75 mM phosphoric acid and once in methanol prior to drying and scintillation counting.

A375 cells = experiment: Antiproliferative MTT assay; type: cell-based; conditions: Homo sapiens, A-375, 48 h, mean ± S.D. of two experiments
Experimental: (§12) The effect of final target compounds over A375 and SK-MEL-5 was performed using reported procedures (detailed procedure is located in the Supplementary Information page 51s). […]
(§13) Evaluation of the Antiproliferative Activity Against A375 and SK-MEL-5
(§14) A375 and SK-MEL-5 cells were purchased from American Type Culture Collection (ATCC, Ro ckv ille, MD, USA) and maintained in Dulbecco’s modified eagle medium (DMEM, Welgene, Daegu, Republic of Korea) supplemented with 10% fetal bovine serum (FBS, Welgene, Daegu, Republic of Korea) and 1% penicillin/streptomycin (Welgene, Daegu, Republic of Korea) in a hu midified atmo sphere with 5% CO2 at 37 °C. Both cells were taken from culture substrate with 0.05% trypsin-0.02% EDTA and plated at a density of 5 × 10^3 cells/well in 96 well plates and then incubated at 37 °C fo r 24 h in a hu midified atmo sphere with 5% CO2 prior to treatment with various concentrations (3-fold serial dilution, 12 points) of the tested compounds. The cells were incubated for 48 h after treatment with the test compounds. The cell viability was assessed by the conventional 3-(4,5-dimethylthiazol-2-yl)-2,5-diphenyltetrazolium bromide (MTT) reduction assay. MTT assays were carried out with CellTiter 96® (Promega) according to the manufacturer’s instructions. The absorbance at 590 nm was recorded using EnVision 2103 (Perkin Elmer; Bo ston , MA, USA). The IC50 values were calculated using GraphPad Prism 4.0

SK-MEL-5 cells = experiment: Antiproliferative MTT assay; type: cell-based; conditions: Homo sapiens, 48 h, mean ± S.D. of two experiments
Experimental: as §12, §13, §14

CRAF = CRAF (Homo sapiens, UniProt P04049); experiment: Reaction Biology kinase HotSpot enzyme assay; type: biochemical; conditions: 1 µM ATP; mean ± S.D. of two separate experiments; read-out: IC50 CRAF
CRAF, sequence (P04049 whole entry): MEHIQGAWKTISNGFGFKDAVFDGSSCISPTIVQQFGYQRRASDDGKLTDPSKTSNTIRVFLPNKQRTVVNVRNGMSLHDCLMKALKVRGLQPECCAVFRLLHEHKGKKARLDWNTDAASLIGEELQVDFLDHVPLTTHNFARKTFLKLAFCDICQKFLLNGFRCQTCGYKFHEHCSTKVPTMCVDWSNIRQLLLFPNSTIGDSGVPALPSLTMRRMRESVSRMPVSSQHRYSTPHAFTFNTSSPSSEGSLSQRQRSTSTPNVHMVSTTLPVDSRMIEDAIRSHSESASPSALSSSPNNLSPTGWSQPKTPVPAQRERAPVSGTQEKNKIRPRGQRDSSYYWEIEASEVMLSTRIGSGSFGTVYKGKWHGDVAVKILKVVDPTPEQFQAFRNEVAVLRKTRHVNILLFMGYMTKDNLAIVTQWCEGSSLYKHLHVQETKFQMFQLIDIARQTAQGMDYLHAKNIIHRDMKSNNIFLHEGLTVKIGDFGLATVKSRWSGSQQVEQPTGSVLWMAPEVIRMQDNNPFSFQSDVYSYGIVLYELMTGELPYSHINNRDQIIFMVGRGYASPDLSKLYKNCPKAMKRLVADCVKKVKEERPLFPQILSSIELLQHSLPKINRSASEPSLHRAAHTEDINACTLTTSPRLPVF
Experimental: as §11

Row | SMILES | activity at 10 µM (MOLT-4) | activity at 10 µM (UO-31) | activity at 10 µM (HCT-15) | activity at 10 µM (NCI-H23) | IC50 (BRAF (wild-type)) | IC50 (A375 cells) | IC50 (SK-MEL-5 cells) | IC50 (CRAF)
1 | O=S(=O)(NCCNc1nccc(-n2cnc3ccccc32)n1)c1ccc(Cl)cc1 [12c, N-(2-((4-(1H-benzo [d]imidazol-1-yl)pyrimidin-2-yl)amino)ethyl)-4-chlorobenzenesulfonamide] | 103% | 81.6% | 96.6% | 101% | 1380 ± 170 nM | 11000 ± 360 nM | 17600 ± 490 nM | 1490 ± 230 nM
2 | O=S(=O)(NCCCNc1nccc(-n2cnc3ccccc32)n1)c1ccc(F)cc1 [12i, N-(3-((4-(1H-benzo [d]imidazol-1-yl)pyrimidin-2-yl)amino)propyl)-4-fluorobenzenesulfonamide] | 33.2% | 59.3% | 82.8% | 70.4% | 1330 ± 81 nM | 1950 ± 130 nM | 2360 ± 210 nM | 980 ± 44 nM
3 | O=S(=O)(NCCCNc1nccc(-n2cnc3ccccc32)n1)c1ccccc1 [12h, N-(3-((4-(1H-benzo [d]imidazol-1-yl)pyrimidin-2-yl)amino)propyl)benzenesulfonamide] | 77.2% | 75.3% | 88% | 91.8% | 2320 ± 110 nM | 9260 ± 160 nM | 11300 ± 290 nM | 2140 ± 78 nM
